Data taken from article PMC3911823 (The FEBS journal, 2011).
Positions count from the first letter of the chain named.

Experiments:
Format in all cases: biochemical, rabbit (Oryctolagus cuniculus)
[1] = target: T1, P450 2B4 H172Q (Oryctolagus cuniculus, UniProt P00178, H172Q); assay: Inhibition of 7-EFC O-deethylation by imidazole inhibitors
T1 sequence (P00178 with tags, fused parts or gaps H172Q limits assumed): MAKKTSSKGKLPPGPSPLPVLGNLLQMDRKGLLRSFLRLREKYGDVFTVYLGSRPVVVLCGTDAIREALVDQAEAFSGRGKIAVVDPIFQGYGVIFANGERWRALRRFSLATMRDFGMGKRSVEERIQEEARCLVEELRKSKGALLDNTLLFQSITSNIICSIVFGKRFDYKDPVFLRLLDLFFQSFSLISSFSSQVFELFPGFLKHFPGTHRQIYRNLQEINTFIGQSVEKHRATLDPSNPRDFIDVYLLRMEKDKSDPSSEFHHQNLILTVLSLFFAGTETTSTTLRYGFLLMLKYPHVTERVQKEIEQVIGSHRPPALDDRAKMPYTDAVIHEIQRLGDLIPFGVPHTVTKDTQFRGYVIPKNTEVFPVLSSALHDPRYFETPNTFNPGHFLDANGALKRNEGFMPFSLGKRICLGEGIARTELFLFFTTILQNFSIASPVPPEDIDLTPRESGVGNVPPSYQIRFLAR

[2] = target: T2, P450 2B4 E474Q (Oryctolagus cuniculus, UniProt P00178, E474Q); assay: as above
T2 sequence (P00178 with tags, fused parts or gaps E474Q limits assumed): T1 sequence (P00178 with tags, fused parts or gaps H172Q limits assumed) with Q153H, E455Q

[3] = target: T3, P450 2B4 H172A (Oryctolagus cuniculus, UniProt P00178, H172A); assay: as above
T3 sequence (P00178 with tags, fused parts or gaps H172A limits assumed): T1 sequence (P00178 with tags, fused parts or gaps H172Q limits assumed) with Q153A

[4] = target: T4, P450 2B4 wild type (Oryctolagus cuniculus, UniProt P00178); assay: as above
T4 sequence (P00178 with tags, fused parts or gaps limits assumed): T1 sequence (P00178 with tags, fused parts or gaps H172Q limits assumed) with Q153H

[5] = target: T5, P450 2B4 E474D (Oryctolagus cuniculus, UniProt P00178, E474D); assay: as above
T5 sequence (P00178 with tags, fused parts or gaps E474D limits assumed): T1 sequence (P00178 with tags, fused parts or gaps H172Q limits assumed) with Q153H, E455D

[6] = target: T3, P450 2B4 H172A
[7] = target: T4, P450 2B4 wild type; settings: 2B4 WT

IC50 [1]	Ratio 4-CPI IC50/Bifonazole IC50 ([1]; 2B4 H172Q, 50 μM 7-EFC as substrate)	IC50 [2]	Ratio 4-CPI IC50/Bifonazole IC50 ([2]; 2B4 E474Q, 50 μM 7-EFC as substrate)	IC50 [3]	Ratio 4-CPI IC50/Bifonazole IC50 ([3]; 2B4 H172A, 50 μM 7-EFC as substrate)	IC50 [4]	Ratio 4-CPI IC50/Bifonazole IC50 ([4]; 2B4 WT, 50 μM 7-EFC as substrate)	IC50 [5]	Ratio 4-CPI IC50/Bifonazole IC50 ([5]; 2B4 E474D, 50 μM 7-EFC as substrate)	decrease (change) in kcat versus wild type [6]	kcat [6]	kcat/S50 [6]	S50 ([6]; Hill equation)	kcat/S50 [7]	S50 ([7]; Hill equation)	kcat ([7]; substrate O-dealkylation)	Compound
220 nM	0.29	500 nM	0.62	310 nM	0.53	40 nM	0.04	240 nM	0.39								Clc1ccc(-c2c[nH]cn2)cc1 [4-CPI, 4-(4-chlorophenyl)imidazole]
										~ 19 fold	0.0067 ± 0.0017 s⁻¹	0.08	5.0 ± 0.8 µM	3.3	2.3 ± 0.5 µM	0.127 ± 0.005 s⁻¹	O=c1ccc2nc3ccc(OCc4ccccc4)cc3oc-2c1 [7-BR, 7-benzyloxyresorufin]
